The nature of assay [1]: Inhibition of rat FTase using farnesylpyrophosphate and dansyl-GCVLS as substrate preincubated for 5 mins measured after 15 mins by fluorescence assay.
A short description of assay [2]: Inhibition of rat GGTase-1 using geranylgeranyl-pyrophosphate and dansyl-GCVLL as substrate preincubated for 5 mins measured after 15 mins by fluorescence assay.
For assay [3], the species on record is Rattus norvegicus. Nature of the assay: Bisubstrate inhibition of rat GGTase-1 at 20 to 40 nM using geranylgeranyl-pyrophosphate and dansyl-GCVLL as substrate by double-reciprocal plot analysis.
For assay [4], the species on record is Rattus norvegicus. Kind of assay: Bisubstrate inhibition of rat FTase at 20 to 40 nM using farnesylpyrophosphate and dansyl-GCVLS as substrate by double-reciprocal plot analysis.

Calls of active or inactive are those of the source. The calls are words filed in the database; no cut-off is given here.

Take `O=C1NCC(=O)N(Cc2ccco2)[C@H]1Cc1c[nH]c2ccccc12`: the results for the IC50 in assay [1] and in assay [2] were 0.0721 µM and 0.79 µM, respectively.
On the same counts, the results for `N#Cc1ccc(CN2C(=O)CNC(=O)[C@@H]2Cc2c[nH]c3ccccc23)cc1` are 0.0432 µM and 0.32 µM.
Consider `CC(C)[C@@H]1C(=O)NCC(=O)N1Cc1ccco1`, for which the IC50 in assay [1] stood at 0.346 µM; in assay [2], 1.92 µM.
The matching figures for `COc1ccc(CN2C(=O)CNC(=O)[C@H]2CC(C)C)cc1`: 0.346 µM and 1.2 µM.
The matching figures for `O=C1NCC(=O)N(Cc2ccc(N3CCOCC3)cc2)[C@@H]1Cc1c[nH]c2ccccc12`: 0.132 µM and 0.0881 µM.
On the same counts, the results for `O=C1NCC(=O)N(Cc2ccco2)[C@H]1Cc1c[nH]cn1` are 0.0972 µM and 0.98 µM.
For the compound `COc1ccc(CN2C(=O)CNC(=O)[C@H]2Cc2ccccc2)cc1`, the values for the IC50 in assay [1] and in assay [2] were 0.142 µM and 0.46 µM, respectively.
The matching figures for `COc1ccc(CN2C(=O)CNC(=O)[C@H]2C)cc1`: 0.621 µM and 2.83 µM.
The matching figures for `O=C1NCC(=O)N(Cc2ccco2)[C@@H]1Cc1c[nH]cn1`: 0.0706 µM and 0.35 µM.
As for `COc1ccc(CN2C(=O)CNC(=O)[C@@H]2CC(C)C)cc1`, the IC50 was 0.582 µM in assay [1] and 3.92 µM in assay [2].
On the same counts, the results for `O=C1NCC(=O)N(Cc2ccc(Br)cc2)[C@H]1Cc1c[nH]c2ccccc12` are 0.0417 µM and 0.63 µM.
The matching figures for `O=C1NCC(=O)N(Cc2ccco2)[C@H]1Cc1ccccc1`: 0.16 µM and 1.82 µM.
The matching figures for `COc1ccc(CN2C(=O)CNC(=O)[C@@H]2CCSC)cc1`: 0.19 µM and 0.7 µM.
As to `COc1ccc(C[C@@H]2C(=O)NCC(=O)N2Cc2ccc(OC)cc2)cc1`, the IC50 in assay [1] worked out at 0.129 µM; in assay [2], 0.38 µM.
On the same counts, the results for `O=C1NCC(=O)N(Cc2ccco2)[C@H]1CSCc1ccccc1` are 0.0689 µM and 0.27 µM.
The matching figures for `COc1ccc(CN2C(=O)CNC(=O)[C@H]2CCSC)cc1`: 0.109 µM and 0.32 µM.
The matching figures for `COc1ccc(CN2C(=O)CNC(=O)[C@@H]2Cc2ccccc2)cc1`: 0.183 µM and 1.96 µM.
As to `CC(C)C[C@H]1C(=O)NCC(=O)N1Cc1ccco1`, the IC50 in assay [1] is 0.476 µM; in assay [2], 3.88 µM.
The matching figures for `O=C1NCC(=O)N(Cc2ccc(F)cc2)[C@H]1Cc1c[nH]c2ccccc12`: 0.0782 µM and 0.77 µM.
Consider `COc1ccc(CN2C(=O)CNC(=O)[C@@H]2CSCc2ccccc2)cc1`, for which the figures for the IC50 in assay [1] and in assay [2] were 0.0451 µM and 0.16 µM, respectively.
On the same counts, the results for `O=C1NCC(=O)N(Cc2ccc(Cl)cc2)[C@H]1Cc1c[nH]c2ccccc12` are 0.042 µM and 0.52 µM.
The matching figures for `C[C@H]1C(=O)NCC(=O)N1Cc1ccco1`: 1.56 µM and 5.22 µM.
On to `O=C1NCC(=O)N(Cc2ccco2)[C@@H]1Cc1c[nH]c2ccccc12`, for which the IC50 in assay [1] is 0.0524 µM; in assay [2], 0.22 µM.
On the same counts, the results for `CC(C)C[C@@H]1C(=O)NCC(=O)N1Cc1ccco1` are 0.421 µM and 1.66 µM.
On the same counts, the results for `COc1ccc(C[C@H]2C(=O)NCC(=O)N2Cc2ccc(OC)cc2)cc1` are 0.188 µM and 0.88 µM.
As for `COc1ccc(CN2C(=O)CNC(=O)[C@H]2Cc2c[nH]cn2)cc1`, the IC50 in assay [1] amounted to 0.0785 µM; in assay [2], 0.18 µM.
On the same counts, the results for `C[C@@H]1C(=O)NCC(=O)N1Cc1ccco1` are 0.971 µM and 3.83 µM.
`COc1ccc(CN2C(=O)CNC(=O)[C@H]2C(C)C)cc1`: the IC50 in assay [1] came out at 0.479 µM; in assay [2], 1.7 µM.
On the same counts, the results for `COc1ccc(C[C@H]2C(=O)NCC(=O)N2Cc2ccco2)cc1` are 0.234 µM and 1.05 µM.
With `COc1ccc(CN2C(=O)CNC(=O)[C@@H]2C(C)C)cc1`, the values for the IC50 in assay [1] and in assay [2] were 0.774 µM and 3.82 µM, respectively.
On the same counts, the results for `COc1ccc(CN2C(=O)CNC(=O)[C@H]2Cc2c[nH]c3ccccc23)cc1` are 0.0398 µM and 0.15 µM.
The matching figures for `O=C1NCC(=O)N(Cc2ccco2)[C@@H]1Cc1ccccc1`: 0.177 µM and 0.62 µM.
The matching figures for `O=C1NCC(=O)N(Cc2ccc(F)cc2)[C@@H]1Cc1c[nH]c2ccccc12`: 0.0447 µM and 0.48 µM.
Regarding `COc1ccc(CN2C(=O)CNC(=O)[C@@H]2C)cc1`, the values for the IC50 in assay [1] and in assay [2] were 1.1 µM and 5.21 µM, respectively.
Turning to `O=C1NCC(=O)N(Cc2ccc(Oc3cccc(Cl)c3)cc2)[C@H]1Cc1c[nH]c2ccccc12`, the IC50 in assay [1] is 0.0265 µM; in assay [2] it was 0.0965 µM.
On the same counts, the results for `O=C1NCC(=O)N(Cc2ccc(Cl)cc2)[C@@H]1Cc1c[nH]c2ccccc12` are 0.0331 µM and 0.17 µM.
On the same counts, the results for `COc1ccc(CN2C(=O)CNC(=O)[C@H]2CSCc2ccccc2)cc1` are 0.0707 µM and 0.47 µM.
On the same counts, the results for `O=C1NCC(=O)N(Cc2ccc(Oc3cccc(Cl)c3)cc2)[C@@H]1Cc1c[nH]c2ccccc12` are 0.0178 µM and 0.0323 µM.
As to `COc1c(Cl)cc(Cl)cc1CN1C(=O)CNC(=O)[C@H]1Cc1c[nH]c2ccccc12`, the IC50 was determined as 0.0221 µM in assay [1] and 0.0782 µM in assay [2].
On the same counts, the results for `COc1ccc(C[C@@H]2C(=O)NCC(=O)N2Cc2ccco2)cc1` are 0.118 µM and 0.41 µM.
Turning to `O=C1NCC(=O)N(Cc2ccc(N3CCOCC3)cc2)[C@H]1Cc1c[nH]c2ccccc12`, the IC50 in assay [1] is 0.225 µM; in assay [2], 0.123 µM.
Turning to `CSCC[C@@H]1C(=O)NCC(=O)N1Cc1ccco1`, the results for the IC50 in assay [1] and in assay [2] were 0.121 µM and 0.73 µM, respectively.
The matching figures for `N#Cc1ccc(CN2C(=O)CNC(=O)[C@H]2Cc2c[nH]c3ccccc23)cc1`: 0.0387 µM and 0.13 µM.
As for `CC(C)[C@H]1C(=O)NCC(=O)N1Cc1ccco1`, the IC50 came out at 0.541 µM in assay [1] and 3.2 µM in assay [2].
On the same counts, the results for `COc1ccc(CN2C(=O)CNC(=O)[C@@H]2Cc2c[nH]cn2)cc1` are 0.107 µM and 0.59 µM.
The matching figures for `O=C1NCC(=O)N(Cc2ccc(Oc3ccc(Cl)c(Cl)c3)cc2)[C@H]1Cc1c[nH]c2ccccc12`: 0.0223 µM and 0.0923 µM.
The matching figures for `O=C1NCC(=O)N(Cc2ccc(Br)cc2)[C@@H]1Cc1c[nH]c2ccccc12`: 0.0298 µM and 0.12 µM.
Consider `O=C1NCC(=O)N(Cc2ccc(Oc3ccc(Cl)c(Cl)c3)cc2)[C@@H]1Cc1c[nH]c2ccccc12`, for which the inhibition result in the assay listed under Rattus norvegicus [3] and in the assay listed under Rattus norvegicus [4] was “Active” throughout. Besides, the IC50 in assay [1] was determined as 0.0131 µM; in assay [2], 0.021 µM.
Regarding `COc1ccc(CN2C(=O)CNC(=O)[C@@H]2Cc2c[nH]c3ccccc23)cc1`, the IC50 in assay [1] came to 0.0588 µM; in assay [2] it was 0.52 µM.
The matching figures for `O=C1NCC(=O)N(Cc2ccco2)[C@@H]1CSCc1ccccc1`: 0.0991 µM and 0.76 µM.
On the same counts, the results for `COc1c(Cl)cc(Cl)cc1CN1C(=O)CNC(=O)[C@@H]1Cc1c[nH]c2ccccc12` are 0.034 µM and 0.219 µM.
The matching figures for `CSCC[C@H]1C(=O)NCC(=O)N1Cc1ccco1`: 0.189 µM and 1.89 µM.

Broadly, the IC50 is the concentration that gives 50% inhibition.

These data come from ChEMBL document CHEMBL1781910, “Design, synthesis, and characterization of piperazinedione-based dual protein inhibitors for both farnesyltransferase and geranylgeranyltransferase-I” (Eur J Med Chem, 2011).
